Results reported in patent EP4268819A1 (priority 2022, dated 2023).
Read-outs that look alike come from different tables or passages of the source.

Legend:
icSARS-CoV-2-mNG [1] = type: cell-based, SARS-CoV-2
[2] = CC50 calculation, MTT assay, Calu-3; type: cell-based; conditions: human, Calu-3 cells
Protocol: (§1) The cells were treated with drug candidates at the indicated concentrations. Negative control (non-treated), DMSO control and positive control (100% DMSO treated) were added, and plates were then stored at 37 °C, 5 % CO2 for 72h. The old cell media was then discarded, and cells were incubated for 3 h at 37°C, 5% CO2 with 90 µl phenolred-free DMEM-Media and 10 µl of a 5 mg/ml MTT solution per well (#ab146345 Abcam). Afterwards Media was discarded carefully, and Formazan crystals were dissolved on a shaker with 100 µl MTT buffer/well (0.04 N HCI in isopropanol) for 10 minutes. Absorption levels at 570 nm and 650 nm wavelength were measured by Berthold TriStar2 S Multimode Reader and values were normalized to non-treated cells. CC50 was calculated as the half-maximal cytotoxic dose via GraphPad Prism 9 using four-parameter nonlinear regression.
(§2) Absorption levels at 570 nm and 650 nm wavelength were measured and values were normalized to non-treated cells. CC50 was calculated as the half-maximal cytotoxic dose via GraphPad Prism 9 using four-parameter nonlinear regression.
(§3) They now expanded the tests and used MTT assay, which is a procedure used to calculate the redox activity at the mitochondrial membrane of cells and the commercial cell titer glow assay (Promega) to measure cellular ATP. Cell lines tested were the ones used for our antiviral assay, i.e. Calu-3, Caco-2 and Huh7.5 cells.

[3] = CC50 calculation, MTT assay, Huh7.5; type: cell-based; conditions: human, Huh7.5 cells
Protocol: as §1, §2, §3

in vitro [4] = type: cell-based; conditions: human
Protocol: The old cell media was then discarded, and cells were washed with PBS. 35 µl DMEM-Media and 35 µl CellTiterGlow® reagent (#G7571, Promega) were added and incubated for 2 minutes on an orbital shaker protected from light. Afterwards plates were incubated for 10 minutes without shaking to stabilize the luminescent signal. 50 µl of the supernatant was transferred to a white 96 well measure plate and measured by Berthold TriStar2 S Multimode Reader. The background signal was determined by the luminescent signal of the positive control subtracted from the values used for analysis. The data was then normalized to the non-treated control. CC50 was calculated as the half-maximal cytotoxic dose via GraphPad Prism 9 using four-parameter nonlinear regression.
Luminescent signals were measured by Berthold TriStar2 S Multimode Reader. The data was then normalized to the non-treated control. CC50 was calculated as the half-maximal cytotoxic dose via GraphPad Prism 9 using four-parameter nonlinear regression.

in vitro [5] = type: cell-based; conditions: human, caco-2; IncuCyte; cell line not specified; read-out: level of growth inhibition (live-cell imaging, growth curves)
Excerpt: For Analysis IncuCyte® S3 Software was used.

[6] = test system: DENV type 2 reporter virus
Calu-3 cells [7] = test system: Calu-3 cells
Protocol: (§4) Calu-3 (40.000/well), Huh7.5 (10.000/well) and CaCo2 (10.000/well) cells were seeded in 96-well plates in DMEM-Media. The cells were treated with the drug compounds at the indicated concentrations, negative control (non-treated), DMSO control and positive control (50% DMSO treated) were added, and plates were then stored in the IncuCyte® at 37 °C, 5 % CO2 for 72h measuring every 3 hours cell confluency via phase channel with 10x objective. For Analysis IncuCyte® S3 Software was used.
(§5) Plates were then stored in the IncuCyte® measuring every 3 hours cell confluency.

in vitro [8] = conditions: human, calu-3 cells, CC50 (IncuCyte), confluency every 3 hours for 72h
Protocol: as §4, §5

[9] = test system: DENV type 2 reporter virus; assay: microbe, parasite or virus in culture; conditions: Dengue virus, Huh7.5, 24 h
[10] = Cell viability via live cell imaging (IncuCyte), Huh7.5; conditions: human, huh7.5 cells
Protocol: as §4, §5

icSARS-CoV-2-mNG [11] = assay: IC50 calculation with icSARS-CoV-2-mNG in Calu-3 cells (mNG+/Hoechst+ infection rate); conditions: ic-SARS-CoV-2-mNG in Calu-3 cells; for Therapeutic range: CC50/IC50 (CTG): CC50 by CTG; for Therapeutic range: CC50/IC50 (IncuCyte): CC50 by IncuCyte; for Therapeutic range: CC50/IC50 (MTT): CC50 by MTT
DENV = conditions: against DENV; reported, with a low therapeutic index; cited from earlier work
ZIKA = conditions: against ZIKA; reported, with a low therapeutic index; cited from earlier work
Calu-3 cells [12] = assay: Toxicity by staining of the nuclei (Hoechst+ cell count) in the icSARS-CoV-2-mNG IC50 experiment; conditions: Calu3 cells in the icSARS-CoV-2-mNG IC50 experiment
Huh7.5 cells = assay: CC50 calculation, MTT assay, Huh7.5; type: cell-based; conditions: 72h, 4320 min
Protocol: as §1, §2, §3

CaCo2 and Calu3 cells = conditions: screening at 50, 10, 2 µM
[13] = Calu3 and Caco2 cells, 24h pre-treatment, […], 50, 10, 2 µM (Atpenin A5 10, 2, 0.4 µM)

COc1[nH]c(=O)c(C(=O)[C@@H](C)C[C@H](C)[C@@H](Cl)CCl)c(O)c1OC [Atpenin A5, atpenin A5]
SARS-CoV-2 infection of the cell lines (infection rate mNG+/Hoechst+ cells) (icSARS-CoV-2-mNG [1]; [13]): inhibited SARS-CoV-2 infection of the cell lines in a dose-dependent manner
CC50 at 72 h [2]: 1.2 µM
CC50 at 72 h [3]: 101 µM
CC50 at 72 h (in vitro [4]; Calu-3 cells, 72h, read-out: CC50 (CTG)): 0.86 µM
CC50 at 72 h (in vitro [4]; Huh7.5 cells, 72h, read-out: CC50 (CTG)): 62 µM
CC50 at 72 h (in vitro [5]): > 60 µM
Therapeutic range: CC50/IC50 (CTG) ([6]; Dengue Virus in Huh7.5 cells, CC50 by CTG): CTG: 229.5
Therapeutic range: CC50/IC50 (IncuCyte) ([6]; Dengue Virus in Huh7.5 cells, CC50 by IncuCyte): IncuCyte: 240.7
Therapeutic range: CC50/IC50 (MTT) ([6]; Dengue Virus in Huh7.5 cells, CC50 by MTT): MTT: 375.2
CC50 (Calu-3 cells [7]; read-out: CC50 (IncuCyte), confluency every 3 hours for 72h, 4320 min): > 80 µM
CC50 at 72 h (in vitro [8]): > 160 µM
IC50 [9]: 0.27 µM
CC50 at 72 h [10]: 65 µM
Therapeutic range: CC50/IC50 (CTG) (icSARS-CoV-2-mNG [11]): CTG: 1.72
Therapeutic range: CC50/IC50 (IncuCyte) (icSARS-CoV-2-mNG [11]): IncuCyte: > 320
Therapeutic range: CC50/IC50 (MTT) (icSARS-CoV-2-mNG [11]): MTT: 24

CN(C)C(=N)N=C(N)N [Metformin]
antiviral activity (DENV): mM range
antiviral activity (ZIKA): mM range
toxicity (staining of the nuclei, cell count) (Calu-3 cells [12]): without any cytotoxicity

[H]/N=C(/N)N/C(=N/[H])NCCc1ccccc1 [Phenformin]
SARS-CoV-2 infection of the cell lines (infection rate mNG+/Hoechst+ cells) (icSARS-CoV-2-mNG [1]): inhibited SARS-CoV-2 infection of the cell lines in a dose-dependent manner
CC50 (Huh7.5 cells): 61.2 µM
CC50 at 72 h (in vitro [4]; caco-2): > 2 µM
CC50 at 72 h (in vitro [4]; calu-3 cells): > 2 µM
CC50 at 72 h (in vitro [4]; huh7.5 cells): > 2 µM
Therapeutic range: CC50/IC50 (CTG) ([6]; human, huh7.5 cells): CTG: 109.2
Therapeutic range: CC50/IC50 (IncuCyte) ([6]; human, huh7.5 cells): IncuCyte: 59.9
Therapeutic range: CC50/IC50 (MTT) ([6]; human, huh7.5 cells): MTT: 3.3
CC50 (Calu-3 cells [7]; human, 72h): 1500 µM
Therapeutic range: CC50/IC50 (CTG) (icSARS-CoV-2-mNG [11]): CTG: 1306.4
Therapeutic range: CC50/IC50 (IncuCyte) (icSARS-CoV-2-mNG [11]): IncuCyte: 867.1
Therapeutic range: CC50/IC50 (MTT) (icSARS-CoV-2-mNG [11]): MTT: 876.3
toxicity (staining of the nuclei, cell count) (Calu-3 cells [12]): without any toxicity

CC(C)Cc1nn(C)c(=O)c2c(SCCCO)n(Cc3cccc4ccccc34)cc12 [SR13800]
toxicity (cell viability by Hoechst staining of the nucleus) (CaCo2 and Calu3 cells): toxic

O[C@H]1[C@H](O)[C@@H](O)[C@H](O)[C@@H](O)[C@@H]1O [Scyllo-Inositol, Scyllo-inositol]
SARS-CoV-2 infection of the cell lines (infection rate mNG+/Hoechst+ cells) (icSARS-CoV-2-mNG [1]; [13]): did not show any activity
